Molecular target: PRMT5-MEP50 enzyme complex (Homo sapiens (Human), UniProt O14744)
Test: PRMT5 enzyme activity in vitro assay (methylation of histone H4R3, ELISA absorbance at 450 nm)
Assay type: biochemical
Conditions: SAM, histone H4 peptide, room temperature 2 hours, 8 points from 10 μM to 0.128 nM
Method in brief: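 Human PRMT5-MEP50 was prepared at 5 μg/mL with SAM at 2 μM and reacted 2 h at room temperature on plate-coated histone H4 (1-20) peptide. An 8-point 1:5 compound series ran from 10 μM to 0.128 nM. H4R3 methylation was detected by antibody/HRP ELISA at 450 nm to give IC50.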

Chain of PRMT5-MEP50 enzyme complex (O14744 2-637): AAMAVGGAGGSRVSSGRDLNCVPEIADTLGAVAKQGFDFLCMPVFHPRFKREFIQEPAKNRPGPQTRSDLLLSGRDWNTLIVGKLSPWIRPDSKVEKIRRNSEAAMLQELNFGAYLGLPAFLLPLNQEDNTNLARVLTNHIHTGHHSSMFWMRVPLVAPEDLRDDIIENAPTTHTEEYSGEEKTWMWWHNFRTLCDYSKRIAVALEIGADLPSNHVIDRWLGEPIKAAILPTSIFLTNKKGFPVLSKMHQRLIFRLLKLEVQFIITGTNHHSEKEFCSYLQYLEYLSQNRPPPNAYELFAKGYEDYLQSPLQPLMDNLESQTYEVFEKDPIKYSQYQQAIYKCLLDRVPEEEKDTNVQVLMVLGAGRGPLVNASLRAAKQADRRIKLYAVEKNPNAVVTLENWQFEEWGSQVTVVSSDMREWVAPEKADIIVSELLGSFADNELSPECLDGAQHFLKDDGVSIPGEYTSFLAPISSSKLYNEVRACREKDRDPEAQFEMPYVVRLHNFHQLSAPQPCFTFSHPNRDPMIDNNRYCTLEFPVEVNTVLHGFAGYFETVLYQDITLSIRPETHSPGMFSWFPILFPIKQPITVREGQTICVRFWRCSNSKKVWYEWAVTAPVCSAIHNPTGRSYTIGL
Chain of PRMT5-MEP50 enzyme complex (Q9BQA1 2-342 partner): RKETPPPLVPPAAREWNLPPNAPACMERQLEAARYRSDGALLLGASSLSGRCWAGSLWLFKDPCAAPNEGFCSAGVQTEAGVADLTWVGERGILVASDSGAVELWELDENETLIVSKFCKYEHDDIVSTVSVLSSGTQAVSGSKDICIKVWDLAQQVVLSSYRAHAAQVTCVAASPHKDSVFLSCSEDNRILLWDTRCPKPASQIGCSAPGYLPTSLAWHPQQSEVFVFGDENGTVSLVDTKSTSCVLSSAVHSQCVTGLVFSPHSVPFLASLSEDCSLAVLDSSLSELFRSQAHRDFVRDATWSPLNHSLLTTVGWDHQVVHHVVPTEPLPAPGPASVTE

IC50 [nM]	SMILES
100 to 1000	CCN1CC2(CC(Oc3ccc4c(c3)OCCN(C[C@H](O)CN3CCc5ccccc5C3)C4=O)C2)C1 [Example 172, 4-[(2R)-3-(3,4-dihydro-1H-isoquinolin-2-yl)-2-hydroxy-propyl]-8-[(2-ethyl-2-azaspiro[3.3]heptan-6-yl)oxy]-2,3-dihydro-1,4-benzoxazepin-5-one]
1 to 100	CC(=O)N1CC2(CC(Oc3ccc4c(c3)OCCN(C[C@H](O)CN3CCc5ccccc5C3)C4=O)C2)C1 [Example 174, 8-[(2-acetyl-2-azaspiro[3.3]heptan-6-yl)oxy]-4-[(2R)-3-(3,4-dihydro-1H-isoquinolin-2-yl)-2-hydroxy-propyl]-2,3-dihydro-1,4-benzoxazepin-5-one]
100 to 1000	O=C(c1ccc2c(c1)OCCN(C[C@H](O)CN1CCc3ccccc3C1)C2=O)N1CCCC1 [Example 175, 4-[(2R)-3-(3,4-dihydro-1H-isoquinolin-2-yl)-2-hydroxy-propyl]-8-(pyrrolidin-1-carbonyl)-2,3-dihydro-1,4-benzoxazepin-5-one]
100 to 1000	O=C(c1ccc2c(c1)OCCN(C[C@H](O)CN1CCc3ccccc3C1)C2=O)N1CCCCC1 [Example 176, 4-[(2R)-3-(3,4-dihydro-1H-isoquinolin-2-yl)-2-hydroxy-propyl]-8-(piperidine-1-carbonyl)-2,3-dihydro-1,4-benzoxazepin-5-one]
100 to 1000	O=C(c1ccc2c(c1)OCCN(C[C@H](O)CN1CCc3ccccc3C1)C2=O)N1CCC(F)(F)C1 [Example 177, 8-(3,3-difluoropyrrolidin-1-carbonyl)-4-[(2R)-3-(3,4-dihydro-1H-isoquinolin-2-yl)-2-hydroxy-propyl]-2,3-dihydro-1,4-benzoxazepin-5-one]
100 to 1000	CN1CCN(C(=O)c2ccc3c(c2)OCCN(C[C@H](O)CN2CCc4ccccc4C2)C3=O)CC1 [Example 178, 4-[(2R)-3-(3,4-dihydro-1H-isoquinolin-2-yl)-2-hydroxy-propyl]-8-(4-methylpiperazine-1-carbonyl)-2,3-dihydro-1,4-benzoxazepin-5-one]
100 to 1000	CC1(C)CN(C[C@H](O)CN2CCc3ccccc3C2)C(=O)c2ccc(CN3CCCC3)cc2O1 [Example 179, 4-[(2R)-3-(3,4-dihydro-1H-isoquinolin-2-yl)-2-hydroxy-propyl]-2,2-dimethyl-8-(pyrrolidin-1-ylmethyl)-3H-1,4-benzoxazepin-5-one]
1 to 100	CC(=O)N1CCC(Oc2ccc3c(c2)OC(C)(C)CN(C[C@H](O)CN2CCc4ccccc4C2)C3=O)CC1 [Example 180, 8-[(1-acetyl-4-piperidyl)oxy]-4-[(2R)-3-(3,4-dihydro-1H-isoquinolin-2-yl)-2-hydroxy-propyl]-2,2-dimethyl-3H-1,4-benzoxazepin-5-one]
100 to 1000	CC1(C)CN(C[C@H](O)CN2CCc3ccccc3C2)C(=O)c2ccc(OC3CCN(C=O)CC3)cc2O1 [Example 181, 4-[[4-[(2R)-3-(3,4-dihydro-1H-isoquinolin-2-yl)-2-hydroxy-propyl]-2,2-dimethyl-5-oxo-3H-1,4-benzoxazepin-8-yl]oxy]piperidine-1-carbaldehyde]
100 to 1000	CC1(C)CN(C[C@H](O)CN2CCc3ccccc3C2)C(=O)c2ccc(CN3CCN(C4COC4)CC3)cc2O1 [Example 182, 4-[(2R)-3-(3,4-dihydro-1H-isoquinolin-2-yl)-2-hydroxy-propyl]-2,2-dimethyl-8-[[4-(oxetan-3-yl)piperazin-1-yl]methyl]-3H-1,4-benzoxazepin-5-one]
100 to 1000	CC1(C)CN(C[C@H](O)CN2CCc3ccccc3C2)C(=O)c2ccc(CN3CCC4(COC4)C3)cc2O1 [Example 183, 4-[(2R)-3-(3,4-dihydro-1H-isoquinolin-2-yl)-2-hydroxy-propyl]-2,2-dimethyl-8-(2-oxa-7-azaspiro[3.4]octan-7-ylmethyl)-3H-1,4-benzoxazepin-5-one]
100 to 1000	O=C(c1ccc2c(c1)OCCN(C[C@H](O)CN1CCc3ccccc3C1)C2=O)N1CCC(F)CC1 [Example 184, 4-[(2R)-3-(3,4-dihydro-1H-isoquinolin-2-yl)-2-hydroxy-propyl]-8-(4-fluoropiperidine-1-carbonyl)-2,3-dihydro-1,4-benzoxazepin-5-one]
100 to 1000	O=C(c1ccc2c(c1)OCCN(C[C@H](O)CN1CCc3ccccc3C1)C2=O)N1CCCC(C(F)(F)F)C1 (stereo partly drawn) [Example 185, 4-[(2R)-3-(3,4-dihydro-1H-isoquinolin-2-yl)-2-hydroxy-propyl]-8-[3-(trifluoromethyl)piperidine-1-carbonyl]-2,3-dihydro-1,4-benzoxazepin-5-one]
100 to 1000	O=C(c1ccc2c(c1)OCCN(C[C@H](O)CN1CCc3ccccc3C1)C2=O)N1CCC(C(F)(F)F)CC1 [Example 186, 4-[(2R)-3-(3,4-dihydro-1H-isoquinolin-2-yl)-2-hydroxy-propyl]-8-[4-(trifluoromethyl)piperidine-1-carbonyl]-2,3-dihydro-1,4-benzoxazepin-5-one]
100 to 1000	CC1CN(C(=O)c2ccc3c(c2)OCCN(C[C@H](O)CN2CCc4ccccc4C2)C3=O)CC(C)O1 (stereo partly drawn) [Example 187, 4-[(2R)-3-(3,4-dihydro-1H-isoquinolin-2-yl)-2-hydroxy-propyl]-8-(2,6-dimethylmorpholin-4-carbonyl)-2,3-dihydro-1,4-benzoxazepin-5-one]
100 to 1000	O=C1c2ccc(C(=O)N3CC4CCC3C4)cc2OCCN1C[C@H](O)CN1CCc2ccccc2C1 (stereo partly drawn) [Example 188, 8-(2-azabicyclo[2.2.1]heptane-2-carbonyl)-4-[(2R)-3-(3,4-dihydro-1H-isoquinolin-2-yl)-2-hydroxy-propyl]-2,3-dihydro-1,4-benzoxazepin-5-one]
100 to 1000	CC1CN(C(=O)c2ccc3c(c2)OCCN(C[C@H](O)CN2CCc4ccccc4C2)C3=O)CCO1 (stereo partly drawn) [Example 190, 4-[(2R)-3-(3,4-dihydro-1H-isoquinolin-2-yl)-2-hydroxy-propyl]-8-(2-methylmorpholin-4-carbonyl)-2,3-dihydro-1,4-benzoxazepin-5-one]
100 to 1000	CC1COCCN1C(=O)c1ccc2c(c1)OCCN(C[C@H](O)CN1CCc3ccccc3C1)C2=O (stereo partly drawn) [Example 191, 4-[(2R)-3-(3,4-dihydro-1H-isoquinolin-2-yl)-2-hydroxy-propyl]-8-(3-methylmorpholin-4-carbonyl)-2,3-dihydro-1,4-benzoxazepin-5-one]
100 to 1000	CC1(C)CN(C[C@H](O)CN2CCc3ccccc3C2)C(=O)c2ccc(CN3CCOCC3)nc2O1 [Example 192, 4-[(2R)-3-(3,4-dihydro-1H-isoquinolin-2-yl)-2-hydroxy-propyl]-2,2-dimethyl-8-(morpholinomethyl)-3H-pyrido[3,2-f][1,4]oxazepin-5-one]
100 to 1000	O=C(c1ccc2c(c1)OCCN(C[C@H](O)CN1CCc3ccccc3C1)C2=O)N1CCCC(F)C1 (stereo partly drawn) [Example 194, 4-[(2R)-3-(3,4-dihydro-1H-isoquinolin-2-yl)-2-hydroxy-propyl]-8-(3-fluoropiperidine-1-carbonyl)-2,3-dihydro-1,4-benzoxazepin-5-one]
100 to 1000	O=C(c1ccc2c(c1)OCCN(C[C@H](O)CN1CCc3ccccc3C1)C2=O)N1CCOC(F)(F)C1 [Example 195, 8-(2,2-difluoromorpholin-4-carbonyl)-4-[(2R)-3-(3,4-dihydro-1H-isoquinolin-2-yl)-2-hydroxy-propyl]-2,3-dihydro-1,4-benzoxazepin-5-one]
100 to 1000	O=C(c1ccc2c(c1)OCCN(C[C@H](O)CN1CCc3ccccc3C1)C2=O)N1CCC(F)(F)CC1 [Example 196, 8-(4,4-difluoropiperidine-1-carbonyl)-4-[(2R)-3-(3,4-dihydro-1H-isoquinolin-2-yl)-2-hydroxy-propyl]-2,3-dihydro-1,4-benzoxazepin-5-one]
100 to 1000	CC1(C)CN(C[C@H](O)CN2CCc3ccccc3C2)C(=O)c2ccc(CN3CCCCC3)nc2O1 [Example 197, 4-[(2R)-3-(3,4-dihydro-1H-isoquinolin-2-yl)-2-hydroxy-propyl]-2,2-dimethyl-8-(1-piperidylmethyl)-3H-pyrido[3,2-f][1,4]oxazepin-5-one]
1 to 100	CN(C1CCC(Oc2ccc3c(c2)OCCN(C[C@H](O)CN2CCc4ccccc4C2)C3=O)CC1)C1COC1 (stereo partly drawn) [Example 198, 4-[(2R)-3-(3,4-dihydro-1H-isoquinolin-2-yl)-2-hydroxypropyl]-8-[4-[methyl(oxetan-3-yl)amino]cyclohexoxy]-2,3-dihydro-1,4-benzoxazepin-5-one]
1 to 100	CN(CCF)C1CCC(Oc2ccc3c(c2)OCCN(C[C@H](O)CN2CCc4ccccc4C2)C3=O)CC1 (stereo partly drawn) [Example 199, 4-[(2R)-3-(3,4-dihydro-1H-isoquinolin-2-yl)-2-hydroxypropyl]-8-[4-[2-fluoroethyl(methyl)amino]cyclohexoxy]-2,3-dihydro-1,4-benzoxazepin-5-one]

SMILES	IC50 [nM]
CC(=O)N1C2CCC1CC(Oc1ccc3c(c1)OCCN(C[C@H](O)CN1CCc4ccccc4C1)C3=O)C2 (stereo partly drawn) [Example 173, 8-[(8-acetyl-8-azabicyclo[3.2.1]octan-3-yl)oxy]-4-[(2R)-3-(3,4-dihydro-1H-isoquinolin-2-yl)-2-hydroxy-propyl]-2,3-dihydro-1,4-benzoxazepin-5-one]	1 to 100
O=C1c2ccc(C(=O)N3C4CCC3COC4)cc2OCCN1C[C@H](O)CN1CCc2ccccc2C1 [Example 189, 4-[(2R)-3-(3,4-dihydro-1H-isoquinolin-2-yl)-2-hydroxy-propyl]-8-(3-oxa-8-azabicyclo[3.2.1]octan-8-carbonyl)-2,3-dihydro-1,4-benzoxazepin-5-one]	100 to 1000
O=C(c1ccc2c(c1)OCCN(C[C@H](O)CN1CCc3ccccc3C1)C2=O)N1CC2CCCC2C1 (stereo partly drawn) [Example 193, 8-(3,3a,4,5,6,6a-hexahydro-1H-cyclopenta[c]pyrrol-2-carbonyl)-4-[(2R)-3-(3,4-dihydro-1H-isoquinolin-2-yl)-2-hydroxy-propyl]-2,3-dihydro-1,4-benzoxazepin-5-one]	100 to 1000

From patent publication US11111237B2, “Bicyclic compound and use thereof” (SK BIOPHARMACEUTICALS CO., LTD., priority 2019, dated 2021)
